Measurements published in PubChem BioAssay (NCI).
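Exposure lasted 48 hours, with cells grown in 96-well plates and compounds tested at five concentrations. Here, GI50 denotes the concentration required for 50% inhibition of growth. TGI: concentration producing complete growth inhibition.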

Legend:
Assay in all cases: inhibition of tumour cell growth, NCI panel, 48 h
T-47D breast = test system: T-47D breast
U251 CNS = test system: U251 CNS
MDA-MB-435 = test system: MDA-MB-435
MDA-MB-231 breast = test system: MDA-MB-231 breast
COLO 205 colon = test system: COLO 205 colon
KM12 colon = test system: KM12 colon
HS 578T breast = test system: HS 578T breast
PC-3 prostate = test system: PC-3 prostate
MDA-N = test system: MDA-N
RXF 393 renal = test system: RXF 393 renal
OVCAR-5 ovarian = test system: OVCAR-5 ovarian
DLD-1 colon = test system: DLD-1 colon
XF 498 CNS = test system: XF 498 CNS

Compound | TGI (T-47D breast) [µM] | TGI (U251 CNS) [µM] | TGI (MDA-MB-435) [µM] | TGI (MDA-MB-231 breast) [µM] | TGI (COLO 205 colon) [µM] | TGI (KM12 colon) [µM] | TGI (HS 578T breast) [µM] | TGI (PC-3 prostate) [µM] | TGI (MDA-N) [µM] | TGI (RXF 393 renal) [µM] | TGI (OVCAR-5 ovarian) [µM] | TGI (DLD-1 colon) [µM] | TGI (XF 498 CNS) [µM] | GI50 (XF 498 CNS) [µM]
CC(C)(C)OC(=O)N1C(C2=COc3ccccc3O2)=COc2cccnc21 | 3.45 | 3.13 | 3.67 | 4.01 | 3.64 | 3.97 | 19.1 | 6.04 | 4.68 | 3.06 | 3.4 | – | – | –
O=c1oc2c(ccc3occc32)c(N2CCCCC2)c1-c1ccccc1 | – | > 100 | – | – | > 100 | > 100 | – | – | – | > 100 | > 100 | > 100 | > 100 | –
CC(Br)C(=O)c1ccc2cc(Br)c3ccccc3c2c1 (stereo unspecified) | 30.5 | 26.5 | 29.9 | 30.2 | – | 32.5 | 62.9 | – | 27 | 30.2 | 31.4 | – | – | –
COc1cc(S(=O)(=O)N/N=C/C=C/c2ccccc2)c(OC)cc1NC(C)=O | > 100 | – | > 100 | – | 45.8 | > 100 | > 100 | > 100 | > 100 | > 100 | > 100 | – | – | –
NCCCCN | > 100 | > 100 | 31.4 | > 100 | > 100 | 38.6 | – | > 100 | – | > 100 | > 100 | – | – | –
NC(CCc1ccccc1)(C(=O)O)c1ccccc1 (stereo unspecified) | > 100 | > 100 | > 100 | > 100 | – | > 100 | > 100 | > 100 | > 100 | > 100 | > 100 | – | – | –
CCOC(=O)c1c(Nc2ccccc2)sc2cccnc12 | > 100 | > 57.9 | 54.6 | > 83.5 | > 60.5 | 37.6 | > 69.1 | 65 | 58.3 | > 86.6 | 79.4 | – | – | –
CCOC(=O)C(Cc1ccc(OC(=O)c2ccc(OC)cc2OC)cc1)NC(=O)C(F)(F)F (stereo unspecified) | 61.6 | > 100 | 34.9 | > 100 | 43.9 | 72.8 | 83.5 | 48.1 | 49.3 | 36.2 | > 100 | – | – | –
COc1cccc(/C=N/[N-]C(N)=O)c1[O-].[Cu+2].[OH3+].c1cnc2c(c1)ccc1cccnc12 | – | 17.7 | – | – | 32.5 | 47.1 | – | – | – | – | > 100 | – | 6.36 | 2.3
O=S1c2ccccc2N=C(c2ccc3ccccc3c2)CC1c1ccccc1 (stereo unspecified) | – | 32.6 | – | – | 40 | 28.8 | – | – | – | – | 42.9 | 48.4 | > 100 | –
CCOc1cc(NC(C)=O)ccc1C(=O)N/N=C/c1ccco1 | > 100 | – | > 100 | > 100 | > 100 | > 100 | > 100 | > 100 | > 100 | > 100 | > 100 | – | – | –
CCOC(=O)C(C)OC(=O)c1ccc(C)cc1 (stereo unspecified) | – | > 100 | – | – | > 100 | > 100 | – | – | – | > 100 | > 100 | > 100 | > 100 | –
CN(C)c1ccc(/C=C2\C[C@H]3[C@@H]4CCC5=CC(=O)CC[C@]5(C)[C@H]4CC[C@]3(C)C2=O)cc1 | > 100 | 85.6 | – | > 100 | 64.8 | > 100 | > 100 | 66.8 | > 100 | > 100 | > 100 | – | – | –
COC(=O)c1c(O)ccc2c1c1c(n2Cc2ccccn2)C(=O)c2ccccc2C1 | – | > 100 | > 100 | > 100 | 28.5 | > 100 | > 100 | 90.2 | > 100 | > 100 | > 100 | – | – | –
O=C(COC(c1ccc(F)cc1)c1ccc(F)cc1)N1CCN(CCCc2ccccc2)CC1 | 9.35 | 14.8 | 13 | 11.3 | 3.36 | 15.9 | 59.6 | 11.9 | 13.4 | 8.1 | 14.7 | – | – | –
CC(C)c1ccc2c(c1)[C@@]1(C)CC[C@H](C)C(C)(C)C1CC2 (stereo partly specified) | 66.4 | – | 31.3 | 34 | 42.1 | 38.4 | 47.4 | – | 56.3 | 33.2 | 52.6 | – | – | –
